Reference: ChEMBL document CHEMBL1150342, “Novel 3-carboxamide-coumarins as potent and selective FXIIa inhibitors” (J Med Chem, 2008)
The source made the active and inactive calls. No cut-off for these calls is given here. Non-standard residues stand in square brackets, D forms with d. Residues, ends and D or L forms follow the SMILES beside them. *: point of attachment. CH2Cl = ClC*

What was measured:
Coagulation factor XII = target: T1, Coagulation factor XII (Homo sapiens, UniProt P00748); experiment: Inhibition of human factor 12a
T1 sequence (P00748 whole entry): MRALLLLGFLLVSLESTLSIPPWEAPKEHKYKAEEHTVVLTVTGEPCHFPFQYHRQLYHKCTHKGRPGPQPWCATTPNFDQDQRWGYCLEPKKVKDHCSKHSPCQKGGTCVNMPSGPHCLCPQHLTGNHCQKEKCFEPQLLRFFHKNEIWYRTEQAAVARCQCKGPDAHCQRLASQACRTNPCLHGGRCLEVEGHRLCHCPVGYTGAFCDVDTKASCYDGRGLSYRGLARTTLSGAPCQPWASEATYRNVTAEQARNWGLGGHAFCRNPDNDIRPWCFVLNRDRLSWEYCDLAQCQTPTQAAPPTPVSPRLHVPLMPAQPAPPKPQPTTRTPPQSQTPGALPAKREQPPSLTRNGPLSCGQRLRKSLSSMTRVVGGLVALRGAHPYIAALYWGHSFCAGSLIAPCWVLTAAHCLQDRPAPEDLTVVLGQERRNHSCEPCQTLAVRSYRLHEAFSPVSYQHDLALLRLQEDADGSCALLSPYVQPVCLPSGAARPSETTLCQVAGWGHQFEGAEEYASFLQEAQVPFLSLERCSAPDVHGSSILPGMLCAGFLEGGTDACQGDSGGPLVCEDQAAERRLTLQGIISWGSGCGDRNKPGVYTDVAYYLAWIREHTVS

Prothrombin [1] = target: T2, Prothrombin (Homo sapiens, UniProt P00734); experiment: Inhibition of human thrombin
Coagulation factor X [2] = target: T3, Coagulation factor X (Homo sapiens, UniProt P00742); experiment: Inhibition of human factor 10a at 50 uM
[3] = target: Coagulation factor VII/tissue factor (Homo sapiens) (UniProt P08709+P13726); experiment: Inhibition of human tissue factor/factor 7a at 50 uM
Plasma kallikrein [4] = target: T4, Plasma kallikrein (Homo sapiens, UniProt P03952); experiment: Inhibition of human kallikrein at 50 uM
[5] = target: T5, Coagulation factor XII (Homo sapiens) (UniProt P00748); experiment: Inhibition of human factor 12a at 50 uM
T5 sequence (whole entry): T1 sequence (P00748 whole entry)

Prothrombin [6] = target: T2, Prothrombin; experiment: Inhibition of human thrombin at 50 uM
[7] = target: Coagulation factor VII/tissue factor (Homo sapiens, UniProt P08709); experiment: Inhibition of human tissue factor/factor 7a; type: protein-complex assay
Plasma kallikrein [8] = target: T4, Plasma kallikrein; experiment: Inhibition of human kallikrein
Coagulation factor X [9] = target: T3, Coagulation factor X; experiment: Inhibition of human factor 10a
[10] = target: T5, Coagulation factor XII (Homo sapiens); experiment: Inhibition of human factor 12a assessed as residual activity at 49.5 uM; details: TDE = time-dependent effect

Coagulation factor VII/tissue factor, sequence (P08709 61-212 limits assumed): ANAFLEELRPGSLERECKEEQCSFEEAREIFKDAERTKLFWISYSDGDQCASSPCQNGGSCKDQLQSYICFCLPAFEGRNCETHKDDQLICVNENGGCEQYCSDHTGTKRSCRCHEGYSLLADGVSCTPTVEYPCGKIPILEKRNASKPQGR
Coagulation factor VII/tissue factor, sequence (P08709 213-466 limits assumed): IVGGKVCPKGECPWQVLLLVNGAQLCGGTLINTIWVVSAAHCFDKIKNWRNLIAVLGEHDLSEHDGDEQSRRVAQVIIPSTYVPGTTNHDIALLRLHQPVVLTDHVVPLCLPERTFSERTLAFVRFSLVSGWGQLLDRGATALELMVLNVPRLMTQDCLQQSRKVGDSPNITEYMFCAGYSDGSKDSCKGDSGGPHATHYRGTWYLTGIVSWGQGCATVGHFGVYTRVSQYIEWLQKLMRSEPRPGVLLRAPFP
Coagulation factor VII/tissue factor, sequence (P13726 33-295 partner limits assumed): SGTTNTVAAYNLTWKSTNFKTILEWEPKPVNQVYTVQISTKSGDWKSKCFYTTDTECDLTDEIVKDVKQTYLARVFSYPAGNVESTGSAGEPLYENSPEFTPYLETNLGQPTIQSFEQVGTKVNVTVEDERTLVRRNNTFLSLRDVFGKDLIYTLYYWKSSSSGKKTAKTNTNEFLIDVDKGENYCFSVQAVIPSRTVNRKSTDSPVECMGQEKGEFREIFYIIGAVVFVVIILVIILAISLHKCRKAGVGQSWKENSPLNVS
T4 sequence (P03952 20-390 limits assumed): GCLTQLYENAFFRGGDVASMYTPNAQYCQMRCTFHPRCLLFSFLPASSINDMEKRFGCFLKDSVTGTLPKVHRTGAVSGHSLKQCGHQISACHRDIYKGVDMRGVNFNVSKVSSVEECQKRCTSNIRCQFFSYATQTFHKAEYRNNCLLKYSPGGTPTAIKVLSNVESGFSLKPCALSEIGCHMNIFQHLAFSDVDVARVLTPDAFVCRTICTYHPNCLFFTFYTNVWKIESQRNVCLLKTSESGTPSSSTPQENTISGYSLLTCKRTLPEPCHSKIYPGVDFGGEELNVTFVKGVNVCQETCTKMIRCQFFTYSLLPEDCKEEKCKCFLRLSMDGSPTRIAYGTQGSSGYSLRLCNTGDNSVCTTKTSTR
T4 sequence (P03952 391-638 limits assumed): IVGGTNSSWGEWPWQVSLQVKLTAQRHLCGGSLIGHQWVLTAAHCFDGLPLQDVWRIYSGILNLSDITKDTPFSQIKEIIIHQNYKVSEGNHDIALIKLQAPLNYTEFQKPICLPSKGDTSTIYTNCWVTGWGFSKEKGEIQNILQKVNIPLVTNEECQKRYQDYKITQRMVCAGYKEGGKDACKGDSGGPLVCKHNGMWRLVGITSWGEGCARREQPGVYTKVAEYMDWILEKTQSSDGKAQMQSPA
T3 sequence (P00742 41-179 limits assumed): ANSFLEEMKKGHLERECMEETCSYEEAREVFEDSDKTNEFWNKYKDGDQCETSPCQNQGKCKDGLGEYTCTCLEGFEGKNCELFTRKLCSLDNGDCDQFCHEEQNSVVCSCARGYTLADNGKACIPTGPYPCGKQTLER
T3 sequence (P00742 235-488 limits assumed): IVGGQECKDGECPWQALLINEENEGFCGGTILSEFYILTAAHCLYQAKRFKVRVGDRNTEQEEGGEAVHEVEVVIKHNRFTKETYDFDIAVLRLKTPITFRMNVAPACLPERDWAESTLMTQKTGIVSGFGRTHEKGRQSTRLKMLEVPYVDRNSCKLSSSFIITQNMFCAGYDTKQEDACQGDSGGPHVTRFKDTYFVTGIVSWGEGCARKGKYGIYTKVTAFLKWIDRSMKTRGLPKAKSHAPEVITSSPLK

SMILES	IC50 (Coagulation factor XII) [µM]	IC50 (Prothrombin [1]) [µM]	Activity (Coagulation factor X [2])	Activity [3]	Activity (Plasma kallikrein [4])	Activity [5]	Activity (Prothrombin [6])	IC50 [7] [µM]	IC50 (Plasma kallikrein [8]) [µM]	IC50 (Coagulation factor X [9]) [µM]	Activity [10]	Activity (Prothrombin [1])
Cc1cc(C)cc(NC(=O)c2cc3cc(C)ccc3oc2=O)c1	9.8	> 50	inactive	inactive	inactive							
Cc1ccc2oc(=O)c(C(=O)NC(C)C)cc2c1			inactive			inactive	inactive	> 50	> 50			
Cc1cc(C)cc(NC(=O)c2cc3cc(Cl)cc(Br)c3oc2=O)c1	32	> 50						> 50	> 50	> 50		
O=C(Nc1ccccc1)c1cc2cc(Cl)cc(Br)c2oc1=O	4.4		inactive	inactive	inactive		inactive				tde	
COc1cccc2cc(C(=O)Nc3ccccc3)c(=O)oc12				inactive		inactive			> 50	> 50		inactive
O=C(Nc1ccccc1)c1cc2cc(Cl)cc(Cl)c2oc1=O	19		inactive	inactive			inactive		> 50			
O=C(Oc1ccccc1)c1cc2ccccc2oc1=O			inactive	inactive	inactive	inactive	inactive					
COc1ccc2cc(C(=O)Nc3ccccc3)c(=O)oc2c1		> 50		inactive		inactive			> 50	> 50		
O=C(Nc1ccccc1)c1cc2ccccc2oc1=O	42		inactive	inactive	inactive		inactive					
Cc1ccc2oc(=O)c(C(=O)NC34CC5CC(CC(C5)C3)C4)cc2c1	29		inactive	inactive	inactive		inactive					
Cc1ccc2oc(=O)c(C(=O)NC3CCCCCCCCCCC3)cc2c1	33		inactive	inactive	inactive		inactive					
Cc1cccc(NC(=O)c2cc3cc(Cl)cc(Cl)c3oc2=O)c1	25		inactive	inactive	inactive		inactive					
CCN(CC)c1ccc2cc(C(=O)Nc3ccccc3)c(=O)oc2c1			inactive			inactive	inactive	> 50	> 50			
NC(N)=NCCC[C@H](NC(=O)[C@H](Cc1ccccc1)NC(=O)[C@H]1CCCN1)C(=O)CCl (H-[dP]-Phe-Arg-CH2Cl)	0.18	2.5						1.5	0.031	1.9		
Cc1ccc2oc(=O)c(C(=O)NC3CCCCC3)cc2c1			inactive	inactive	inactive	inactive	inactive					
Cc1cc(C)cc(NC(=O)c2cc3cc(Cl)cc(Cl)c3oc2=O)c1	4.3	> 50						> 50	> 50	> 50		
O=C(Nc1ccccc1)c1cc2c(ccc3ccccc32)oc1=O		> 50				inactive		> 50	> 50	> 50		
COc1cc(Br)cc2cc(C(=O)Nc3ccccc3)c(=O)oc12	> 50	> 50	inactive		inactive			> 50				
O=C(Oc1ccccc1)c1cc2cc(CCl)ccc2oc1=O	> 50	7		inactive	inactive					> 50		
Cc1cccc(NC(=O)c2cc3cc(Cl)cc(Br)c3oc2=O)c1	10	> 50	inactive		inactive			> 50				

Further lines, results first:

IC50 (Coagulation factor XII) [µM]	IC50 (Prothrombin [1]) [µM]	Activity (Coagulation factor X [2])	Activity [3]	Activity (Plasma kallikrein [4])	Activity [5]	Activity (Prothrombin [6])	IC50 [7] [µM]	IC50 (Plasma kallikrein [8]) [µM]	IC50 (Coagulation factor X [9]) [µM]	Activity [10]	Activity (Prothrombin [1])	SMILES
10	> 50	inactive	inactive	inactive								Cc1cccc(NC(=O)c2cc3cc(C)ccc3oc2=O)c1
30	> 50	inactive	inactive	inactive								Cc1ccc2oc(=O)c(C(=O)Nc3ccccc3Cl)cc2c1
24		inactive	inactive	inactive		inactive						O=C(Nc1ccccc1)c1cc2cc(Br)ccc2oc1=O
	> 50		inactive		inactive			> 50	> 50			O=C(Nc1ccccc1)c1cc2ccc(O)cc2oc1=O
22		inactive	inactive	inactive		inactive						O=C(Nc1ccccc1)c1cc2cc([N+](=O)[O-])ccc2oc1=O
31		inactive	inactive	inactive		inactive						Cc1ccc2oc(=O)c(C(=O)Nc3cccc(Cl)c3)cc2c1
> 50		inactive	inactive	inactive		inactive						Cc1ccc2oc(=O)c(C(=O)NCCc3ccccc3)cc2c1
23	> 50	inactive	inactive					> 50				Cc1ccc2oc(=O)c(C(=O)Nc3ccccc3)cc2c1
20	> 50	inactive		inactive			> 50					Cc1ccc(NC(=O)c2cc3cc(C)ccc3oc2=O)cc1
> 50		inactive	inactive	inactive		inactive						Cc1ccc2oc(=O)c(C(=O)NCc3ccccc3)cc2c1
32	> 50	inactive	inactive	inactive								Cc1ccc2oc(=O)c(C(=O)Nc3ccccc3C)cc2c1
17	> 50		inactive	inactive					> 50			O=C(Nc1ccccc1)c1cc2cc(CCl)ccc2oc1=O
8.3		inactive	inactive	inactive		inactive						Cc1ccc2oc(=O)c(C(=O)Nc3cnc4ccccc4c3)cc2c1
15	> 50	inactive	inactive	inactive								Cc1ccc2oc(=O)c(C(=O)NCc3cccc4ccccc34)cc2c1
34	> 50	inactive	inactive	inactive								Cc1ccc2oc(=O)c(C(=O)Nc3ccc(Cl)cc3)cc2c1
		inactive	inactive	inactive	inactive	inactive						Cc1ccc2oc(=O)c(C(=O)Oc3ccccc3)cc2c1
